In patent publication US8076449B2, “Therapeutic agents of colivelin for neurodegenerative diseases” (Tomohiro Chiba, priority 2004, dated 2011):
Ends that are not written are not given here.

Experiments:
[1] = system: CD-1 mice icv-administered with Aβ (25-35); experiment: Y-maze spatial working memory impairment induced by Aβ (25-35), icv administration; format: in vivo, mouse; settings: 1 nmol colivelin icv, 10 nmol Aβ (25-35) icv, 3 weeks after Aβ
Method: The icv administration of Aβ peptides has been reported to induce spatial working memory impairment. […] In this test, the in vivo neuroprotective effect of colivelin on Aβ toxicity was examined.
Male CD-1 mice at 3 months of age were icy-administered once every three weeks with 1 nmol colivelin together with 3 μl of saline or 3 μl of saline alone into the left lateral ventricles. After 1 hour from the first administration of colivelin, 5 μl of saline together with 10 nmol Aβ (25-35) or 5 μl of saline alone was administered to the right lateral ventricles. After 3 weeks from the Aβ peptide administration, each mouse was examined for spatial working memory in a Y-maze. The Y-maze was made of three gray plastic arms (40 cm long, 12 cm high, 3 cm wide at the bottom, and 10 cm wide at the top) connected to each other at angles of 120°. The mice were individually placed at the end of one arm of the Y-maze and allowed to freely explore the arms for 8 minutes. Items examined were (1) frequency of entry into each arm, (2) total arm entry times, (3) spontaneous alternation percentage, and (4) events. The spontaneous alternation percentage was defined as a ratio of the arm choices that differed from the previous two choices (“successful choices”) to total choices during the run (“total entry minus two”, because the first two choices could not be evaluated for success or failure during the run). […]

[2] = system: ChAT(+) neurons in the ventral gray column of ALS model mice; experiment: Immunohistochemical count of ChAT(+) neurons in spinal cord sections from dead ALS model mice; format: in vivo, mouse; settings: spinal cord (L1-3) sections from dead mice
Method: Spinal cord (L1-3) sections from wild-type (n=3, FIG. 9a), control (saline-treated) (n=5, FIG. 9b), ADNF-treated (n=3, FIG. 9c), AGA-C8R-HNG17-treated (n=14, FIG. 9d), or colivelin-treated (n=12, FIG. 9e) mice were immunostained with an anti-ChAT antibody to count ChAT(+) neurons in the ventral gray columns of the spinal cords. The sections were prepared from dead mice. The average number of ChAT(+) neurons per section was compared among the mice (FIG. 9f). Statistical analysis was conducted by one-way ANOVA, followed by Fischer's PLSD test (**p<0.01); and
(§1) The immunohistochemical analysis of neuroprotective effect was conducted using ALS model mice (n=12, FIG. 9e) administered with colivelin, in comparison to wild type (n=3, FIG. 9a), control (saline-treated) (n=5, FIG. 9b), A DNF-treated (n=3, FIG. 9c), and AGA-C8R-HNG17-treated (n=14, FIG. 9d) mice. Spinal cord (L1-3) sections from dead mice in each group were immunostained with an anti-ChAT antibody to count ChAT(+) neurons in the ventral gray column (FIG. 9f).

[3] = system: ChAT(+) neurons in the ventral gray column of ALS model mice; experiment: Immunohistochemical count of ChAT(+) neurons in spinal cord sections from 120-day-old ALS model mice; format: in vivo, mouse; settings: spinal cord (L1-3) sections from 120-day-old mice
Method: Spinal cord (L1-3) sections from wild-type (n=3, FIG. 10A), control (saline-treated) (n=5, FIG. 10B), ADNF-treated (n=3, FIG. 10C), or colivelin-treated (n=12, FIG. 10D) mice were immunostained with an anti-ChAT antibody to count ChAT(+) neurons in the ventral gray column. The sections were prepared from 120-day-old mice (see FIG. 8d). The average number of ChAT(+) neurons per section was compared among the mice (FIG. 10E). Statistical analysis was conducted by one-way ANOVA, followed by Fischer's PLSD test (**p<0.01; *p<0.05).
as §1, with “10D)” for “9e)”, “10A),” for “9a),”, “10B), and ADNF-treated” for “9b), A DNF-treated”, “10C)” for “9c), and AGA-C8R-HNG17-treated (n=14, FIG. 9d)”, “the” for “dead”, “9f). The sections were prepared from 120-day-old mice with motor function increased by colivelin and ADNF (see FIG. 8d)” for “9f).”

[4] = system: F11 cells transformed with M146L-PS1; settings: as already reported; cited from earlier work

Row | Sequence | spontaneous alternation percentage (SA %) in Y-maze [1] [%] | number of ChAT(+) neurons per section in the spinal cord [2] | number of ChAT(+) neurons per section in the spinal cord [3] | suppression of cell death caused by M146L-PS1 [4]
1 | SALLRSIPAPAGASRLLLLTGEIDLP [colivelin] | 70 | approximately 19 | approximately 32 | 
2 | SALLRSIPA [ADNF, reference compound] |  |  |  | does not suppress
